Read-outs that look alike come from different tables or passages of the source.

The target in assay [1] is T1, C. difficile Glutamate 2,3-aminomutase (Clostridioides difficile, UniProt Q185C5, V264I).
T1 construct: made in house; host or cells: E. coli BL21(DE3) CodonPlus RILP, pET23a(+)
The class given is biochemical, Clostridium difficile. To be noted: for Keq: 24° C. As to the method: Measurement of the Equilibrium Constant for Conversion of L-Glutamate into β-Glutamate Catalyzed by Glutamate 2,3-aminomutase. Assays were conducted as previously described (see activity measurements above) except at 24° C. […] Initial enzyme concentrations were either 0.75 μM or 0.15 μM. After approximately 4 hours at 24° C., an additional aliquot of enzyme was added to make the final enzyme concentration either 1.5 μM or 0.3 μM, and the reaction was allowed to proceed for an additional 16 hours at 24° C. The reaction was stopped with 0.55 N perchloric acid, and the amino acids were derivatized with PITC as previously described. Following HPLC separation of the PITC derivatized L-glutamate and β-glutamate, the simple ratio of the peak areas of the two compounds was calculated based on the equivalent extinction coefficient of the two compounds (20).

Assay [2] deals with T1, C. difficile Glutamate 2,3-aminomutase. It counts as biochemical, Clostridium difficile. To be noted: for rate of reaction to the other isomer: 20 mM substrate; for Specific Activity: substrate 20 mM. As to the method: Glutamate 2,3-aminomutase Activity Measurements. Enzyme assays were conducted in an anaerobic chamber (Coy, Grass Lake, Mich.) at 37° C. […] At various time intervals (0-3 min), 45 μl of reaction mix was added to 15 μl of 2N perchloric acid to stop the reaction. Samples were centrifuged at 14,000×g for 10 min. The supernatant fluids were treated with PITC according to the method of Heinrikson and Meredith (20). Samples were dissolved in 100 μl of coupling buffer, concentrated to dryness by vacuum centrifugation, redissolved in 400 μl coupling buffer plus 20 μl of PITC, allowed to react for 30 min at room temperature, concentrated to dryness as above, and dissolved in either 0.5 or 1.0 ml water prior to injection (50 or 100 μl). The PITC derivative of L-glutamate was separated from the β-glutamate derivative by HPLC chromatography (20) using a C18 reverse phase column (Phenomenex Gemini 5μ, 4.6 mm×25 cm, #G-4435-E0), flow rate 1 ml/min, room temperature. The PITC-amino acids were separated with a linear gradient composed of 0.05 M ammonium acetate in water (buffer A) and 0.1 M ammonium acetate in 44% water, 46% acetonitrile, and 10% methanol (buffer B). The gradient established was 0-10% Buffer B in 20 min, 10-100% Buffer B in 10 min. […] Concentrations of L-glutamate or β-glutamate were measured using an amino acid standard solution (Pierce Chemical Co., #20088). For enzyme activity measurements at selected time points, the peak area of either L-glutamate or β-glutamate was divided by the total peak area (L-glutamate+β-glutamate) and multiplied by the starting concentration of either L-glutamate or β-glutamate to obtain molar concentrations. Enzyme kinetic parameters were determined by varying the concentration of L-glutamate (0.6-20 mM). Two separate analyses were conducted at two concentrations of enzyme (0.75 and 0.15 μM—subunit) with remaining conditions as stated above. Initial velocities were measured and used to calculate kinetic parameters (Vmax and Km) by the nonlinear least squares curve fitting method of Cleland (25).

Usually kcat stands for the number of substrate molecules converted per active site and unit of time at saturation. Usually Km stands for the concentration of substrate that gives half-maximal velocity. With `N[C@@H](CCC(=O)O)C(=O)O` [L-Glutamate, L-glutamate], the Keq is reported as 14.2 in assay [1] ([L-Glutamate] start 0.6 mM, [Enzyme] 1.5 μM (subunit)); 14.8 in assay [1] ([L-Glutamate] start 0.8 mM, [Enzyme] 0.30 μM (subunit)); 15.2 in assay [1] ([L-Glutamate] start 1.4 mM, [Enzyme] 1.5 μM (subunit)); 15.7 in assay [1] ([L-Glutamate] start 1.6 mM, [Enzyme] 0.30 μM (subunit)); 16.0 in assay [1] ([L-Glutamate] start 3.1 mM, [Enzyme] 1.5 μM (subunit)); 15.9 in assay [1] ([L-Glutamate] start 3.2 mM, [Enzyme] 0.30 μM (subunit)). Further, the Keq in assay [1] ([L-Glutamate] start 6.4 mM, [Enzyme] 0.30 μM (subunit)) came to 15.9; in assay [1] ([L-Glutamate] start 6.6 mM, [Enzyme] 1.5 μM (subunit)), 15.6; in assay [1] ([L-Glutamate] start 12.4 mM, [Enzyme] 1.5 μM (subunit)), 15.6; in assay [1] ([L-Glutamate] start 12.9 mM, [Enzyme] 0.30 μM (subunit)), 16.3; in assay [1] ([L-Glutamate] start 22.1 mM, [Enzyme] 0.30 μM (subunit)) it was 15.5; in assay [1] ([L-Glutamate] start 22.9 mM, [Enzyme] 1.5 μM (subunit)), 15.3. Also, in assay [2], the “rate of reaction to the other isomer” value is 5.9 μmoles min^−1· (mg protein)^−1. In addition, the maximum velocity in assay [2] (37° C., forward direction) is given as 7 μmoles of β-glutamate min^−1· (mg protein)^−1. The Vmax in assay [2] (Assay 1, 37° C.) is on record as 7.5 ± 0.18 μmoles · β-Glutamate min^−1 (mg protein)^−1; in assay [2] (Assay 2, 37° C.), 7.3 ± 0.19 μmoles · β-Glutamate min^−1 (mg protein)^−1. In addition, the kcat in assay [2] (Assay 1, 37° C.) was 6.2 s⁻¹; in assay [2] (Assay 2, 37° C.) it was 6.0 s⁻¹; in assay [2] (conditions of Table 3), 6 s⁻¹. Further, the Km turned out to be 2200 ± 160 µM in assay [2] (Assay 1, 37° C., read-out: Km (L-Glutamate)); 2300 ± 180 µM in assay [2] (Assay 2, 37° C., read-out: Km (L-Glutamate)); 2000 µM in assay [2] (forward direction, conditions of Table 3, read-out: Michaelis constant (Km)). Further, the “Specific Activity” value is on record as 5.9 μmoles · min^−1 · mg^−1 Protein in assay [2] (SAM +, Dithionite +, 37° C.); 0.16 μmoles · min^−1 · mg^−1 Protein in assay [2] (SAM +, Dithionite −, 37° C.); <0.01 μmoles · min^−1 · mg^−1 Protein in assay [2] (SAM −, Dithionite +, 37° C.).

As for `NCCCC[C@H](N)C(=O)O` [L-lysine, reference compound], the “conversion to β-lysine by glutamate 2,3-aminomutase” value in assay [2] (substrate specificity) is “does not catalyze”.

Take `O=S([O-])S(=O)[O-].[Na+].[Na+]` [dithionite, sodium dithionite, reference compound]: the “effect of excess on enzyme activity” value in assay [2] (excess, progressive loss of activity over time at >70 μM (FIG. 3)) is listed as “inhibitory”.

On to `NC(CC(=O)O)CC(=O)O` [β-Glutamate, β-glutamate], for which the Keq was determined as 15.6 in assay [1] ([β-Glutamate] start 0.6 mM, [Enzyme] 0.30 μM (subunit)); 15.3 in assay [1] ([β-Glutamate] start 0.6 mM, [Enzyme] 1.5 μM (subunit)); 15.6 in assay [1] ([β-Glutamate] start 1.4 mM, [Enzyme] 0.30 μM (subunit)); 15.8 in assay [1] ([β-Glutamate] start 1.4 mM, [Enzyme] 1.5 μM (subunit)); 16.2 in assay [1] ([β-Glutamate] start 3.1 mM, [Enzyme] 0.30 μM (subunit)); 16.3 in assay [1] ([β-Glutamate] start 3.1 mM, [Enzyme] 1.5 μM (subunit)). In addition, the Keq in assay [1] ([β-Glutamate] start 6.2 mM, [Enzyme] 0.30 μM (subunit)) is 15.7; in assay [1] ([β-Glutamate] start 6.2 mM, [Enzyme] 1.5 μM (subunit)) it was 16.4; in assay [1] ([β-Glutamate] start 12.3 mM, [Enzyme] 0.30 μM (subunit)), 16.6; in assay [1] ([β-Glutamate] start 12.3 mM, [Enzyme] 1.5 μM (subunit)), 16.4; in assay [1] ([β-Glutamate] start 22.9 mM, [Enzyme] 1.5 μM (subunit)), 15.9; in assay [1] ([β-Glutamate] start 24.3 mM, [Enzyme] 0.30 μM (subunit)), 16.1. Further, in assay [1] (same end point from either substrate), the “equilibrium ratio of β-Glu to L-glutamate” value is listed as “approximately 16”. Further, in assay [2], the “rate of reaction to the other isomer” value is given as 2.3 μmoles min^−1· (mg protein)^−1. Further, the “Specific Activity” value in assay [2] (SAM +, Dithionite +, 37° C.) was 2.3 μmoles · min^−1 · mg^−1 Protein.

Source of the values: patent publication US7456271B2, “Glutamate 2,3-aminomutases and methods of use thereof” (Wisconsin Alumni Research Foundation, priority 2005, dated 2008).
